Data published in patent US12428428B2, “Tricyclic tetrahydroisoquinoline derivative, preparation method therefor and application thereof in medicine” (JIANGSU HENGRUI MEDICINE CO., LTD., priority 2020, dated 2025).
One block for each compound: values may come before it.

Experiments:
CYP3A4 [1] = target: T1, CYP3A4 (Homo sapiens (Human), UniProt P08684); assay: Inhibition of site of metabolism of testosterone in human liver microsome CYP3A4; assay type: in vitro ADME; settings: testosterone substrate
Procedure: (§1) • 1. Phosphate buffer (20×PBS, purchased from Sangon); • 2. NADPH (ACROS, A2646-71-1); • 3. Human liver microsome (Corning Gentest, Cat No, 452161, Lot No. 905002, Donor36); • 4. ABI QTrap 4000 LC-MS System (AB Sciex); • 5. ZORBAX Extend-C18, 3×50 mm, 3.5 μm (Agilent, USA); • 6. CYP probe substrate (testosterone, Vocko, CAS No. [58-22-0]/75 μM) and positive control inhibitor (ketoconazole, SIGMA, Cat No. K1003-100MG).
A 100 mM PBS buffer was prepared. […]. A 0.25 mg/mL microsome solution, a 7.5 mM MgCl2 and a 5 mM NADPH solution were prepared using the buffer. A 30 mM stock solution was diluted with DMSO to obtain 30 mM, 10 mM, 3 mM, 1 mM, 0.3 mM, 0.03 mM, 0.003 mM and 0 mM serial solutions I, which were further diluted 200-fold with phosphate buffer (PBS) to obtain serial test solutions II (150, 50, 15, 5, 1.5, 0.15, 0.015 and 0 μM). A testosterone working solution was diluted with PBS to […].
40 μL of a 0.25 mg/mL microsome solution prepared in 7.5 mM MgCl2 and 20 μL of each of the 375 μM testosterone working solution and the compound working solutions (150, 50, 15, 5, 1.5, 0.15, 0.015 and 0 μM) were measured out and well mixed. Ketoconazole at the same concentration was used in place of the compounds as a positive control group. The mixtures were pre-incubated […] at 37° C. for 5 min at the same time. After 5 minutes, 20 μL of NADPH was added to each well to start reactions. The mixtures were incubated for 30 min. After 30 minutes, 250 μL of internal standard-containing acetonitrile was added to all the samples. The mixtures were well mixed, shaken at 800 rpm for 10 min, and then centrifuged at 3700 rpm for 10 min. 100 μL of the supernatant and 80 μL of ultrapure water were well mixed and subjected to LC-MS/MS analysis.
The IC50 values of the drugs for the site of metabolism of testosterone in CYP3A4 were calculated using Graphpad Prism and are shown in Table 6.

CYP3A4 [2] = target: T1, CYP3A4; assay: Time-dependent inhibition of site of metabolism of testosterone in human liver microsome CYP3A4; assay type: in vitro ADME; settings: testosterone substrate; for IC50 shift at 30 min: human, human liver microsomes, probe testosterone (75 µM)
Procedure: as §1, with “(verapamil, Adamas Reagent Co Ltd,” for “(ketoconazole, SIGMA,”, “25904A).” for “K1003-100MG).”
A 100 mM PBS buffer was prepared. A 0.25 mg/mL microsome solution, a 7.5 mM MgCl2 and a 5 mM NADPH solution were prepared using the buffer. A 30 mM stock solution was diluted with DMSO to obtain 30 mM, 10 mM, 3 mM, 1 mM, 0.3 mM, 0.1 mM, 0.03 mM and 0 mM serial solutions I, which were further diluted 200-fold with phosphate buffer (PBS) to obtain serial test solutions II (150, 50, 15, 5, 1.5, 0.5, 0.15 and 0 μM). A midazolam working solution was diluted with PBS to 15 μM.
The serial test solutions prepared above were well mixed by shaking and aliquoted in 20 μL portions into corresponding reaction plates (+NADPH, T0 and −NADPH groups were set). Three parallel tests were set. 40 μL of the liver microsome working solution was added to each 96-well plate. 20 μL of a corresponding substrate solution was added to the T0 plate. 20 μL of NADPH was added to the TO plate and +NADPH group. A timer was started, and the plates were incubated in a water bath at 37° C. After 30 min of incubation, the TO plate was taken out, and the reaction was terminated with 250 μL of an internal standard-containing ACN solution. The +NADPH group was supplemented with 20 μL of the corresponding substrate solution, and the −NADPH group was supplemented with 20 μL of the corresponding substrate solution and […]. A timer was started, and the plates were incubated in a water bath at 37° C. After 30 min of incubation, the plates were taken out, and the reactions were terminated with 250 μL of an internal standard-containing ACN solution. Then the plates were shaken on a shaker at 800 rpm for 10 min and centrifuged at 4000 rpm for 15 min. 100 μL of the supernatant and 80 μL of ultrapure water were well mixed and subjected to LC-MS/MS analysis.
The IC50 values of the drugs for the site of metabolism of testosterone in CYP3A4 were calculated using Graphpad Prism and are shown in Table 8.

hERG potassium channels = hERG potassium channels (Homo sapiens (Human), UniProt Q12809); assay: Blocking of hERG potassium currents (automated patch clamp, HEK293-hERG); assay type: cell-based; settings: HEK293-hERG stable cell strain
Procedure: The blocking of hERG potassium currents by the compounds disclosed herein was tested in a stable cell strain transfected with hERG potassium channels using automated patch clamp.
An HEK293-hERG stable cell strain was subcultured in an MEM/EBSS medium (10% FBS, 400 μg/mL G418, 1% MEM non-essential amino acid solution (100×), 1% sodium pyruvate solution) at a density of 1:4, and an automated patch clamp experiment was conducted between hour 48 and hour 72 after the start of the culture. On the day of the experiment, the cells were digested with 0.25% trypsin, then centrifuged, collected, and resuspended in an extracellular fluid (140 mM NaCl, 4 mM KCl, 1 mM MgCl2, 2 mM CaCl2), 5 mM D-glucose monohydrate, 10 mM Hepes, pH 7.4, 298 mOsm) to form a cell suspension. The cell suspension was placed on the cell bank of the Patchliner instrument, which then applied the cells to a chip (NPC-16) by means of a negative pressure controller. The negative pressure drew individual cells to the wells of the chip. […] Data were recorded and analyzed using the HEAK Patchmaster, HEAK EPC10 patch clamp amplifier (Nanion), Pathliner software and Pathcontrol HT software, and the currents of the compounds at each concentration and the current of the blank control were analyzed.

[3] = 30 min pre-incubation with NADPH

T1 sequence (P08684 whole entry): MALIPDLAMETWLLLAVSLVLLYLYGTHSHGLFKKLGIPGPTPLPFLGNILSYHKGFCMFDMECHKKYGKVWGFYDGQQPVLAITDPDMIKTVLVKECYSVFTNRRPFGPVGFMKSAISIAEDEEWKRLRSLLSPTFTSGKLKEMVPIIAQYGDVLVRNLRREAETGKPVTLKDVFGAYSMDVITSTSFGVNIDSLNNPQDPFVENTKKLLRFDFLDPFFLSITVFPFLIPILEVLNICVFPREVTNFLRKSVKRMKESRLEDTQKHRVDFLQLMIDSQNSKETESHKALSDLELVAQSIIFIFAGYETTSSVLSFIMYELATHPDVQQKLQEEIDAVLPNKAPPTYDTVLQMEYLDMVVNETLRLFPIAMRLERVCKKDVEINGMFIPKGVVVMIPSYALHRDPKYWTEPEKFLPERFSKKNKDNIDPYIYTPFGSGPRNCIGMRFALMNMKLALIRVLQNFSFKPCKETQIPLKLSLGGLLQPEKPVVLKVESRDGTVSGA
Chain of hERG potassium channels (Q12809 whole entry): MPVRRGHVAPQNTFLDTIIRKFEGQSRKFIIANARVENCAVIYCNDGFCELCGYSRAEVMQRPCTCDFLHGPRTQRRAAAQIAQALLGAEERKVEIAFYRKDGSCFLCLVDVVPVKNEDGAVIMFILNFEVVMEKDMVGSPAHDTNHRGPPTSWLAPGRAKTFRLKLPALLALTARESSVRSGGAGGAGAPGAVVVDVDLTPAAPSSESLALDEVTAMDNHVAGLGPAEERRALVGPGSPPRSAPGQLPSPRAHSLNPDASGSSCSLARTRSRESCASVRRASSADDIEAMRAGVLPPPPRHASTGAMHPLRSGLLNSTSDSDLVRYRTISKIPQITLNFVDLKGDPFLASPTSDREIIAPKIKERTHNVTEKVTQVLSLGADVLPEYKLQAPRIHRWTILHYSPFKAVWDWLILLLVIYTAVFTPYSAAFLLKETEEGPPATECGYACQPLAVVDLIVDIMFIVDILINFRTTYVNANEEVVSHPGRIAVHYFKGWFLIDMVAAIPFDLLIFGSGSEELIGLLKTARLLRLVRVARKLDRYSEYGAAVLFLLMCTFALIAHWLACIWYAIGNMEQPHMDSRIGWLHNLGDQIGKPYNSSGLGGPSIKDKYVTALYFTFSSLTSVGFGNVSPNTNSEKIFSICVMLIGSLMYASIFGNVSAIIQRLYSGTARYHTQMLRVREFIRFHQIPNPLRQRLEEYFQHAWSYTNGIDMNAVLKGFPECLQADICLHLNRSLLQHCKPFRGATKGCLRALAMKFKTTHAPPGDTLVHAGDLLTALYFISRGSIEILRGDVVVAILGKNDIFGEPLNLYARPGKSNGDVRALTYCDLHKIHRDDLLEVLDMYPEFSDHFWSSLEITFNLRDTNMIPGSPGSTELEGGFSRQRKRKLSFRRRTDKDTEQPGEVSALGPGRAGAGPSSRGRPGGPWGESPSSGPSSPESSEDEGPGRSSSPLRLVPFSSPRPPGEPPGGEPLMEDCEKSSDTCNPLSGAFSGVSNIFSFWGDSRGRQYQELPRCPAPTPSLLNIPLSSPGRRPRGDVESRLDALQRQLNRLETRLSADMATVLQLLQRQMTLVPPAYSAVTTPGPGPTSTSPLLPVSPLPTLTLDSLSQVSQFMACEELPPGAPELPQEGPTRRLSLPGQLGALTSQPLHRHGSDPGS

IC50 (CYP3A4 [1]): 7.31 µM
Compound: C[C@@H]1Cc2cc3c(cc2[C@@H](c2ccc(N[C@H]4CCN(CCCF)C4)cc2)N1CC(F)(F)F)OCO3 [Example 1, (S)-1-(3-fluoropropyl)-N-(4-((5R,7R)-7-methyl-6-(2,2,2-trifluoroethyl)-5,6,7,8-tetrahydro-[1,3]dioxolo[4,5-g]isoquinolin-5-yl)phenyl)pyrrolidin-3-amine]

IC50 (CYP3A4 [1]): > 30 µM
Compound: C[C@@H]1Cc2cc3c(cc2[C@@H](c2c(F)cc(N[C@H]4CCN(CCCF)C4)cc2F)N1CC(F)(F)F)OCO3 [Example 2, (S)—N-(3,5-difluoro-4-((5S,7R)-7-methyl-6-(2,2,2-trifluoroethyl)-5,6,7,8-tetrahydro-[1,3]dioxolo[4,5-g]isoquinolin-5-yl)phenyl)-1-(3-fluoropropyl)pyrrolidin-3-amine]

IC50 (CYP3A4 [1]): 14.6 µM
Compound: C[C@@H]1Cc2cc3c(cc2[C@@H](c2ccc(N[C@H]4CCN(CCCF)C4)cc2)N1CC(F)(F)CO)OCO3 [Example 3, 2,2-Difluoro-3-((5R,7R)-5-(4-(((S)-1-(3-fluoropropyl)pyrrolidin-3-yl)amino)phenyl)-7-methyl-7,8-dihydro-[1,3]dioxolo[4,5-g]isoquinolin-6(5H)-yl)propan-1-ol]

IC50 (CYP3A4 [1]): 15.5 µM
IC50 shift at 30 min (CYP3A4 [2]): 1
IC50 (CYP3A4 [2]; [3]): 2.4 µM
IC50 (CYP3A4 [2]; pre-incubation without NADPH): 2.5 µM
Compound: C[C@@H]1Cc2cc3c(cc2[C@@H](c2ccc(N[C@H]4CCN(CCCF)C4)cn2)N1CC(F)(F)CO)OCO3 [Example 4, 2,2-Difluoro-3-((5S,7R)-5-(5-(((S)-1-(3-fluoropropyl)pyrrolidin-3-yl)amino)pyridin-2-yl)-7-methyl-7,8-dihydro-[1,3]dioxolo[4,5-g]isoquinolin-6(5H)-yl)propan-1-ol]

Compound: C[C@@H]1Cc2cc3c(cc2[C@@H](c2ncc(N[C@H]4CCN(CCCF)C4)cc2F)N1CC(F)(F)CO)OCO3 [Example 11, 2,2-Difluoro-3-((5S,7R)-5-(3-fluoro-5-(((S)-1-(3-fluoropropyl)pyrrolidin-3-yl)amino)pyridin-2-yl)-7-methyl-7,8-dihydro-[1,3]dioxolo[4,5-g]isoquinolin-6(5H)-yl)propan-1-ol]
IC50 (hERG potassium channels): > 30 µM

IC50 (CYP3A4 [1]): 23.8 µM
IC50 shift at 30 min (CYP3A4 [2]): 0.5
IC50 (CYP3A4 [2]; [3]): 11.6 µM
IC50 (CYP3A4 [2]; pre-incubation without NADPH): 25.2 µM
Compound: [2H]C1([2H])Oc2cc3c(cc2O1)[C@@H](c1ccc(N[C@H]2CCN(CCCF)C2)cn1)N(CC(F)(F)CO)[C@H](C)C3 [Example 12, 2,2-Difluoro-3-((5S,7R)-5-(5-(((S)-1-(3-fluoropropyl)pyrrolidin-3-yl)amino)pyridin-2-yl)-7-methyl-7,8-dihydro-[1,3]dioxolo[4,5-g]isoquinolin-6(5H)-yl-2,2-d2)propan-1-ol]
IC50 (hERG potassium channels): > 30 µM

Compound: [2H]C1([2H])Oc2cc3c(cc2O1)[C@@H](c1ccc(NC2CN(CCCF)C2)cn1)N(CC(F)(F)CO)[C@H](C)C3 [Example 13, 2,2-Difluoro-3-((5S,7R)-5-(5-((1-(3-fluoropropyl)azetidin-3-yl)amino)pyridin-2-yl)-7-methyl-7,8-dihydro-[1,3]dioxolo[4,5-g]isoquinolin-6(5H)-yl-2,2-d2)propan-1-ol]
IC50 Shift (CYP3A4 [2]): No TDI
